{"source": "paper PMC11676834", "about": "“Composition of Triterpene Glycosides of the Far Eastern Sea Cucumber Cucumaria conicospermium Levin et Stepanov; Structure Elucidation of Five Minor Conicospermiumosides A3-1, A3-2, A3-3, A7-1, and A7-2; Cytotoxicity of the Glycosides Against Human Breast Cancer Cell Lines; Structure–Activity …” (Marine Drugs, 2024)", "key": {"[1]": {"tested_on": "human erythrocytes", "assay": "Hemolytic activity", "format": "cell-based", "settings": "Erythrocyte, 1 h at 37 °C, read-out: ED50, Erythrocytes (hemolytic activity)", "method": "Human blood (B(III) Rh+) was used to obtain erythrocytes by centrifuging 450× g three times for 5 min with phosphate-buffered saline (PBS) (pH 7.4) at 4 °C on centrifuge LABOFUGE 400R (Heraeus, Hanau, Germany). Ice-cold PBS (pH 7.4) was used for resuspension of erythrocytes residue to a final optical density of 1.5 at 700 nm, which was kept on ice. Then, 10 µL of tested compound solution or control (okhotoside A1-1 (7)) were added to 90 µL of erythrocyte suspension in V-bottom 96-well plates and exposed for 1 h at 37 °C. Next, centrifugation at 900× g for 10 min on a laboratory centrifuge LMC-3000 (Biosan, Riga, Latvia), led to separation of layers, and 80 µL of supernatant was carefully decanted and transferred into new flat-plate for each. The values of erythrocyte lysis were measured on microplate photometer Multiskan FC (Thermo Fisher Scientific, Waltham, MA, USA) at λ = 570 nm as hemoglobin concentration in supernatant. The effective dose, causing lysis of 50% erythrocytes (ED50), was calculated with SigmaPlot 14.0 software. All the experiments were carried out in triple repetitions, p ≤ 0.05."}, "[2]": {"assay": "in vitro", "format": "cell-based, human", "settings": "human, MTT, 24 h; read-out: Cytotoxicity, IC50, MCF-10A", "from_the_text": "(§1) Human erythrocytes were purchased from the Station of Blood Transfusion, Vladivostok. Human mammary epithelial cell line MCF-10A CRL-10317, human breast cancer cell lines T-47D HTB-133, MCF-7 HTB-22, and MDA-MB-231 CRM-HTB-26 were received from ATCC (Manassas, VA, USA). Culturing conditions: medium of RPMI-1640 with 1% penicillin/streptomycin (Biolot, St. Petersburg, Russia) and 10% fetal bovine serum (FBS) (Biolot, St. Petersburg, Russia) for the T-47D cell line; Minimum Essential Medium (MEM) with 1% penicillin/streptomycin sulfate (Biolot, St. Petersburg, Russia) and FBS (Biolot, St. Petersburg, Russia) to a final concentration of 10% for MCF-7 and MDA-MB-231 cells; DMEM/F12 medium with 10% FBS, 20 ng/mL EGF, […] hydrocortisone, 100 ng/mL cholera toxin, 10 μg/mL insulin, and 1% penicillin/streptomycin (BioinnLabs, Rostov-on-Don, Russia) for MCF-10A cell line.\n(§2) The concentrations of tested glycosides were 0.1–50 µM; positive controls were cisplatin and okhotoside A1-1 (7). […] Then, the solutions of tested compounds with medium were replaced by 100 µL of fresh medium, and 10 µL of 3-(4,5-dimethylthiazol-2-yl)-2,5-diphenyltetrazolium bromide (MTT) (PanReac, AppliChem, Darmstadt, Germany) stock solution (5 mg/mL) was added to each well and incubated for 4 h, followed by the addition of 100 µL of SDS-HCl solution (1 g SDS/10 mL d-H2O/17 µL 6 N HCl) and further incubated for 18 h. Multiskan FC microplate photometer (Thermo Fisher Scientific, Waltham, MA, USA) was used to measure the absorbance of the converted dye formazan at 570 nm. The concentration caused the 50% cell metabolic activity inhibition (IC50) expresses the cytotoxic activity of each glycoside. The experiments were conducted in triplicate, p ≤ 0.05."}, "[3]": {"tested_on": "MCF-7 cells", "assay": "cells", "format": "cell-based, human", "settings": "MTT, 24 h, read-out: Cytotoxicity, IC50, MCF-7", "from_the_text": "as §1\n(§3) The concentrations of tested glycosides were 0.1–50 µM; positive controls were cisplatin and okhotoside A1-1 (7). Methodology: to each well of 96-well plates, the cell suspension (180 µL) with solution (20 µL) of tested glycoside in a certain concentration was placed (MCF-10A, MCF-7, T-47D, and MDA-MB-231—7 × 10^3 cells per well) and incubated in the atmosphere with 5% CO2 at 37 °C for 24 h. Then, the solutions of tested compounds with medium were replaced by 100 µL of fresh medium, and 10 µL of 3-(4,5-dimethylthiazol-2-yl)-2,5-diphenyltetrazolium bromide (MTT) (PanReac, AppliChem, Darmstadt, Germany) stock solution (5 mg/mL) was added to each well and incubated for 4 h, followed by the addition of 100 µL of SDS-HCl solution (1 g SDS/10 mL d-H2O/17 µL 6 N HCl) and further incubated for 18 h. Multiskan FC microplate photometer (Thermo Fisher Scientific, Waltham, MA, USA) was used to measure the absorbance of the converted dye formazan at 570 nm. The concentration caused the 50% cell metabolic activity inhibition (IC50) expresses the cytotoxic activity of each glycoside. The experiments were conducted in triplicate, p ≤ 0.05."}, "[4]": {"tested_on": "T-47D cells", "assay": "cells", "format": "cell-based, human", "settings": "MTT, 24 h, read-out: Cytotoxicity, IC50, T-47D", "from_the_text": "as §1, §3"}, "[5]": {"tested_on": "MDA-MB-231 cells", "assay": "cells", "format": "cell-based, human", "settings": "MTT, 24 h, read-out: Cytotoxicity, IC50, MDA-MB-231", "from_the_text": "as §1, §2"}, "[6]": {"tested_on": "MCF-10A cells", "assay": "in vitro", "format": "cell-based, human", "settings": "MTT, 24 h; read-out: Cytotoxicity, IC50, MCF-10A", "from_the_text": "as §1, §2"}}, "note": "Structures can show the parent of a compound that is named as a salt. Where two headings read alike, the source gives them in different places."}
{"compound": "CO[C@@H]1[C@@H](O)[C@H](O[C@@H]2[C@@H](O)[C@H](O[C@H]3[C@H](O)[C@@H](O[C@@H]4OC[C@@H](O)[C@H](O)[C@H]4O)[C@H](O[C@H]4[C@H](O[C@H]5CC[C@]6(C)C7CC[C@]8(C)[C@@H]([C@@](C)(O)[C@@H](CC=C(C)C)OC(C)=O)CC[C@@]8(C)C7=CC[C@H]6C5(C)C)OC[C@@H](OS(=O)(=O)O)[C@@H]4O)O[C@@H]3C)O[C@H](COS(=O)(=O)O)[C@H]2O)O[C@H](CO)[C@H]1O", "note": "(stereo partly drawn) [Conicospermiumoside A3-2 (2), 3β-O-{3-O-methyl-β-D-glucopyranosyl-(1→3)-6-O-sodium sulfate-β-D-glucopyranosyl-(1→4)-[(1→2)-β-D-xylopyranosyl]-β-D-quinovopyranosyl-(1→2)-4-O-sodium sulfate-β-D-xylopyranosyl}-20R-hydroxy,22R-acetoxylanosta-7,24-diene]", "values": [{"measurement": "HC50", "setting": "[1]", "value": "7560 ± 80", "unit": "nM"}, {"measurement": "IC50", "setting": "[2]", "value": "36.8 ± 2.48", "unit": "µM"}, {"measurement": "IC50", "setting": "[3]; Homo sapiens, MCF7", "value": "> 50", "unit": "µM"}, {"measurement": "IC50", "setting": "[4]; Homo sapiens, T47D", "value": "38.9 ± 1.62", "unit": "µM"}, {"measurement": "IC50", "setting": "[5]; Homo sapiens, MDA-MB-231", "value": "20.7 ± 2.28", "unit": "µM"}]}
{"compound": "CO[C@@H]1[C@@H](O)[C@H](O[C@@H]2[C@@H](O)[C@H](O[C@H]3[C@H](O)[C@@H](O[C@@H]4OC[C@@H](O)[C@H](O)[C@H]4O)[C@H](O[C@H]4[C@H](O[C@H]5CC[C@]6(C)C7CC[C@]8(C)[C@@H]([C@@](C)(O)[C@H](O)/C=C/C(C)(C)O)CC[C@@]8(C)C7=CC[C@H]6C5(C)C)OC[C@@H](OS(=O)(=O)O)[C@@H]4O)O[C@@H]3C)O[C@H](COS(=O)(=O)O)[C@H]2O)O[C@H](COS(=O)(=O)O)[C@H]1O", "note": "(stereo partly drawn) [Conicospermiumoside A7-2 (5), 3β-O-{6-O-sodium sulfate-3-O-methyl-β-D-glucopyranosyl-(1→3)-6-O-sodium sulfate-β-D-glucopyranosyl-(1→4)-[(1→2)-β-D-xylopyranosyl]-β-D-quinovopyranosyl-(1→2)-4-O-sodium sulfate-β-D-xylopyranosyl}-(20R,22R,25)-trihydroxylanosta-7,23-diene]", "values": [{"measurement": "HC50", "setting": "[1]", "value": "20400 ± 360", "unit": "nM"}, {"measurement": "IC50", "setting": "[2]", "value": "> 50", "unit": "µM"}, {"measurement": "IC50", "setting": "[3]; Homo sapiens, MCF7", "value": "> 50", "unit": "µM"}, {"measurement": "IC50", "setting": "[4]; Homo sapiens, T47D", "value": "> 50", "unit": "µM"}, {"measurement": "IC50", "setting": "[5]; Homo sapiens, MDA-MB-231", "value": "49.9 ± 1.45", "unit": "µM"}]}
{"compound": "CO[C@@H]1[C@@H](O)[C@H](O[C@@H]2[C@@H](O)[C@H](O[C@H]3[C@H](O)[C@@H](O[C@@H]4OC[C@@H](O)[C@H](O)[C@H]4O)[C@H](O[C@H]4[C@H](O[C@H]5CC[C@]6(C)C7CC[C@]8(C)[C@@H]([C@@](C)(O)[C@H](O)CC=C(C)C)CC[C@@]8(C)C7=CC[C@H]6C5(C)C)OC[C@@H](OS(=O)(=O)O)[C@@H]4O)O[C@@H]3C)O[C@H](COS(=O)(=O)O)[C@H]2O)O[C@H](COS(=O)(=O)O)[C@H]1O", "note": "(stereo partly shown) [Frondoside A7-4 (14), frondoside A7-4]", "values": [{"measurement": "HC50", "setting": "[1]", "value": "2160 ± 60", "unit": "nM"}, {"measurement": "IC50", "setting": "[2]", "value": "26.8 ± 0.94", "unit": "µM"}, {"measurement": "IC50", "setting": "[3]; Homo sapiens, MCF7", "value": "32.9 ± 2.13", "unit": "µM"}, {"measurement": "IC50", "setting": "[4]; Homo sapiens, T47D", "value": "44.5 ± 2.18", "unit": "µM"}, {"measurement": "IC50", "setting": "[5]; Homo sapiens, MDA-MB-231", "value": "8.11 ± 0.74", "unit": "µM"}]}
{"compound": "CO[C@@H]1[C@@H](O)[C@H](O[C@@H]2[C@@H](O)[C@H](O[C@H]3[C@H](O)[C@@H](O[C@@H]4OC[C@@H](O)[C@H](O)[C@H]4O)[C@H](O[C@H]4[C@H](OC5CC[C@]6(C)[C@H]7CCC89C(=O)O[C@@](C)(CCCC(C)C)C8[C@@H](OC(C)=O)C[C@@]9(C)C7=CC[C@H]6C5(C)C)OC[C@@H](OS(=O)(=O)O)[C@@H]4O)O[C@@H]3C)OC[C@H]2O)O[C@H](CO)[C@H]1O", "note": "(stereo partly shown) [Frondoside A (10), frondoside A]", "values": [{"measurement": "HC50", "setting": "[1]", "value": "1220 ± 60", "unit": "nM"}, {"measurement": "IC50", "setting": "[2]", "value": "11 ± 1.04", "unit": "µM"}, {"measurement": "IC50", "setting": "[3]; Homo sapiens, MCF7", "value": "19.4 ± 0.48", "unit": "µM"}, {"measurement": "IC50", "setting": "[4]; Homo sapiens, T47D", "value": "9.76 ± 0.53", "unit": "µM"}, {"measurement": "IC50", "setting": "[5]; Homo sapiens, MDA-MB-231", "value": "2.79 ± 0.09", "unit": "µM"}]}
{"compound": "COC1C(O)C(CO)OC(OC2C(O)COC(OC3C(C)OC(OC4C(OC5CCC6(C)C7CCC89C(=O)OC(C)(CC(=O)CC(C)C)C8C(OC(C)=O)CC9(C)C7=CCC6C5(C)C)OCC(OS(=O)(=O)O)C4O)C(O)C3O)C2O)C1O", "note": "(stereo not shown) [Okhotoside A1-1 (7), okhotoside A1-1]", "values": [{"measurement": "HC50", "setting": "[1]", "value": "420 ± 20", "unit": "nM"}, {"measurement": "IC50", "setting": "[2]", "value": "7.95 ± 0.44", "unit": "µM"}, {"measurement": "IC50", "setting": "[3]; Homo sapiens, MCF7", "value": "10.9 ± 0.96", "unit": "µM"}, {"measurement": "IC50", "setting": "[4]; Homo sapiens, T47D", "value": "6.23 ± 0.68", "unit": "µM"}, {"measurement": "IC50", "setting": "[5]; Homo sapiens, MDA-MB-231", "value": "2.25 ± 0.17", "unit": "µM"}]}
{"compound": "C=C(C)CCC[C@]1(C)OC(=O)C23CC[C@H]4C(=CC[C@H]5C(C)(C)C(O[C@@H]6OC[C@@H](OS(=O)(=O)O)[C@H](O)[C@H]6O[C@@H]6O[C@H](CO)[C@@H](O[C@@H]7O[C@H](COS(=O)(=O)O)[C@@H](O)[C@H](O[C@@H]8O[C@H](CO)[C@@H](O)[C@H](OC)[C@H]8O)[C@H]7O)[C@H](O)[C@H]6O[C@@H]6OC[C@@H](O)[C@H](O)[C@H]6O)CC[C@]45C)[C@]2(C)C[C@H](OC(C)=O)C31", "note": "(stereo partly shown) [Okhotoside B2 (9), okhotoside B2]", "values": [{"measurement": "HC50", "setting": "[1]", "value": "1360 ± 100", "unit": "nM"}, {"measurement": "IC50", "setting": "[2]", "value": "10.7 ± 0.21", "unit": "µM"}, {"measurement": "IC50", "setting": "[3]; Homo sapiens, MCF7", "value": "39.8 ± 2.96", "unit": "µM"}, {"measurement": "IC50", "setting": "[4]; Homo sapiens, T47D", "value": "11.1 ± 1.15", "unit": "µM"}, {"measurement": "IC50", "setting": "[5]; Homo sapiens, MDA-MB-231", "value": "4.25 ± 0.38", "unit": "µM"}]}
{"compound": "N.N.[Cl][Pt][Cl]", "note": "[cisplatin, reference compound]", "values": [{"measurement": "IC50", "setting": "[6]", "value": "74.3 ± 2.19", "unit": "µM"}, {"measurement": "IC50", "setting": "[3]", "value": "113 ± 2.45", "unit": "µM"}, {"measurement": "IC50", "setting": "[4]", "value": "> 160", "unit": "µM"}, {"measurement": "IC50", "setting": "[5]", "value": "≥ 160", "unit": "µM"}]}
